Assay results from patent US9586951B2 (FUJIFILM Corporation, priority 2013, dated 2017).
Counter-ions that a name gives are not always drawn.

Molecular target: T1, ATM (Homo sapiens, UniProt Q13315)
T1 construct: detecting phosphorylation of Chk2 in a human non-small cell lung cancer cell line NCI-H460 (ATCC company); host or cells: NCI-H460 human non-small cell lung cancer cells
Assay: ATM inhibition test (phosphorylation of Chk2 generated by ionizing radiation, AlphaScreen SureFire)
Type: cell-based
Conditions: phosphorylated Chk2 in NCI-H460 cells, ionizing radiation 8Gy, 1 hour after test compound treatment; read-out: ATM inhibitory activity
Procedure, shortened: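 Phosphorylated Chk2 read by AlphaScreen SureFire in human non-small cell lung cancer NCI-H460 cells, 1 hour after 8Gy ionizing radiation at 37° C. Compound added 1 hour before irradiation. Percent inhibition normalised between irradiated and non-irradiated drug-untreated signals.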

T1 sequence (Q13315 whole entry): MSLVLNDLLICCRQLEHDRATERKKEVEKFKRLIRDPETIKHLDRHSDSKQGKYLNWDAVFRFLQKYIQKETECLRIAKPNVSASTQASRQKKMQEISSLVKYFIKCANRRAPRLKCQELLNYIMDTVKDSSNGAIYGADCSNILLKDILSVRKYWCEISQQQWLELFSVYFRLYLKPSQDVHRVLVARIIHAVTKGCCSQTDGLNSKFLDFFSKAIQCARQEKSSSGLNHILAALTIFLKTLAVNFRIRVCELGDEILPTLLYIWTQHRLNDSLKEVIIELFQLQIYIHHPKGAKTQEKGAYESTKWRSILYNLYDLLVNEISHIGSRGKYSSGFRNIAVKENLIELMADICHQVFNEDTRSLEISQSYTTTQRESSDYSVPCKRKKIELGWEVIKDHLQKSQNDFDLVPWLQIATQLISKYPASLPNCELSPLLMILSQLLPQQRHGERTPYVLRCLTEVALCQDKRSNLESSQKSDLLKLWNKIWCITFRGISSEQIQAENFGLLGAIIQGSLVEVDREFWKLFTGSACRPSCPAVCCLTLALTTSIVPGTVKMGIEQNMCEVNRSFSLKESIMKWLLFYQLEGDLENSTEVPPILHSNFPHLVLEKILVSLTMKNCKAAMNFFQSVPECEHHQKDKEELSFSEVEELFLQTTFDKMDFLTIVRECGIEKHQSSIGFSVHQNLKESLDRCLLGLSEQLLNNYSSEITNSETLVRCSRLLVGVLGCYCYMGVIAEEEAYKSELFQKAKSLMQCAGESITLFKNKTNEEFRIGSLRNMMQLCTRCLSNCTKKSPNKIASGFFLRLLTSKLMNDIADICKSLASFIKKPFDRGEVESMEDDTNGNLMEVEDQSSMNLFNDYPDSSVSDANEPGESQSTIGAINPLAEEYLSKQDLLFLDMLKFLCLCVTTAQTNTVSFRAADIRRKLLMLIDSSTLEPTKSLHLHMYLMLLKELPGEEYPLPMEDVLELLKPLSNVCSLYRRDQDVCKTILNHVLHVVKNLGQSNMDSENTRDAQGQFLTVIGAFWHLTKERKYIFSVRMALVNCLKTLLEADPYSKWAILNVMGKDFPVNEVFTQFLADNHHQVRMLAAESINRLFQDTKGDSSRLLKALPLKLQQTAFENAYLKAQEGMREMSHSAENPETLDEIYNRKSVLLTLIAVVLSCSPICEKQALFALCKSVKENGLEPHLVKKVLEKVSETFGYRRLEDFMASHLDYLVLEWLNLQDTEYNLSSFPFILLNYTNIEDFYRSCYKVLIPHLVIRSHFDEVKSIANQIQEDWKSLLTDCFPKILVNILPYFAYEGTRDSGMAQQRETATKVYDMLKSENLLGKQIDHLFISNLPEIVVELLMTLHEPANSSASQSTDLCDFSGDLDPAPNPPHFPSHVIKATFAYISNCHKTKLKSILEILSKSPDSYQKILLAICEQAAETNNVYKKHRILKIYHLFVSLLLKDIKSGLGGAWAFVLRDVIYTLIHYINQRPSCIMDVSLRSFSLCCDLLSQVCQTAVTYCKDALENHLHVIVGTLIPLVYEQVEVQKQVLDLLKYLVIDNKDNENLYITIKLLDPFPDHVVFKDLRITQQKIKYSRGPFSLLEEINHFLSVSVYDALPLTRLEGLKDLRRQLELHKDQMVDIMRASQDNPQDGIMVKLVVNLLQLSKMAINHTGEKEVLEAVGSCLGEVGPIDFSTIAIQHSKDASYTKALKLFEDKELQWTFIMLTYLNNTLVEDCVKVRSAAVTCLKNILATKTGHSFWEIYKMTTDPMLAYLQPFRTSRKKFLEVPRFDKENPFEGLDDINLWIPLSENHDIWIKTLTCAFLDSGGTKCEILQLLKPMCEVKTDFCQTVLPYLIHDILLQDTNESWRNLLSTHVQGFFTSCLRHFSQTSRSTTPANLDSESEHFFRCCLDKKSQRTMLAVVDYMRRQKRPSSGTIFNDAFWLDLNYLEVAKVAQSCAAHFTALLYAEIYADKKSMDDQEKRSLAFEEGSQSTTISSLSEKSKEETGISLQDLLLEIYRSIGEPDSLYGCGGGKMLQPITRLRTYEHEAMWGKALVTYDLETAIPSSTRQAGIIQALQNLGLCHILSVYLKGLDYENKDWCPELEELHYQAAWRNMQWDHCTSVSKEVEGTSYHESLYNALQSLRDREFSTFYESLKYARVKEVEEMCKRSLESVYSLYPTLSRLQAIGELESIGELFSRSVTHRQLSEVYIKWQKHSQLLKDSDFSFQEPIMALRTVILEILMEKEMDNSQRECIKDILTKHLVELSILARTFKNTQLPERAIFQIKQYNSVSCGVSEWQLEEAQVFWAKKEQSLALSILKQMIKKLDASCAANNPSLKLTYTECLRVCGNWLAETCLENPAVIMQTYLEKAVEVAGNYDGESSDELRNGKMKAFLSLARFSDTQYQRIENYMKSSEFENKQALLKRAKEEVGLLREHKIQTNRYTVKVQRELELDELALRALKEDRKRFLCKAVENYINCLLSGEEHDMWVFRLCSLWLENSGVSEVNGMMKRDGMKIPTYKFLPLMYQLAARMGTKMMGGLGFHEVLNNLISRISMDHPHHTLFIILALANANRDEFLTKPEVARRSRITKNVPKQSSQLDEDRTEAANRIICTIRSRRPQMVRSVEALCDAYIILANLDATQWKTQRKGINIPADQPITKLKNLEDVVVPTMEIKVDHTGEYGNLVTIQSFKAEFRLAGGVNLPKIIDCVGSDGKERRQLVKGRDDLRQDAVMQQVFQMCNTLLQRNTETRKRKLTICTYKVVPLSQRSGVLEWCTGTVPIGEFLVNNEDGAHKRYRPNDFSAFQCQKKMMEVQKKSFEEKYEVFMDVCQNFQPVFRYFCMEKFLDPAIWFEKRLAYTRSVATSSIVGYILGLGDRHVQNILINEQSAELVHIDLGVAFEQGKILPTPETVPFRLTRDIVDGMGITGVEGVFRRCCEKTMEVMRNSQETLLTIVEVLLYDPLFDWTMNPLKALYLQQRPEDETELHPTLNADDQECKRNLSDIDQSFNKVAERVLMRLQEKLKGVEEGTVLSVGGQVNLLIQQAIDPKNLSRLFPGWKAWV

Structure (SMILES)	IC50 [nM]
CC(CN1CCN(C(C)C)CC1)Nc1ccc2c(c1)Sc1cccc(-c3cc(N4CCOCC4)cc(=O)[nH]3)c1S2 (stereo not shown) [Example 1-13-14, 6-(7-((1-(4-Isopropylpiperazin-1-yl)propan-2-yl)amino)thianthren-1-yl)-4-morpholino pyridin-2(1H)-one]	100 to 500
CC(Nc1ccc2c(c1)Sc1cccc(-c3cc(N4CCOCC4)cc(=O)[nH]3)c1S2)C(=O)N1CCCC1C (stereo not shown) [Example 1-18-6]	100 to 500
Cc1cncc(C(CO)Nc2ccc3c(c2)Sc2cccc(-c4cc(N5CCOCC5)cc(=O)[nH]4)c2S3)c1 (stereo not shown) [Example 1-12-66, 6-(7-((2-Hydroxy-1-(5-methylpyridin-3-yl)ethyl)amino)thianthren-1-yl)-4-morpholino pyridin-2(1H)-one]	100 to 500
CC(CN1C2CCC1COC2)Nc1ccc2c(c1)Sc1cccc(-c3cc(N4CCOCC4)cc(=O)[nH]3)c1S2 (stereo not shown) [Example 1-13-5, 6-(7-((1-(3-Oxa-8-azabicyclo [3.2.1]octan-8-yl)propan-2-yl)amino)thianthren-1-yl)-4-morpholino pyridin-2(1H)-one]	100 to 500
O=c1cc(N2CCOCC2)cc(-c2cccc3c2Oc2ccc(NC4CCN(Cc5cccs5)CC4)cc2C3)[nH]1 [Example 2-28-25, 4-Morpholino-6-(7-((1-(thiophen-2-ylmethyl)piperidin-4-yl)amino)-9H-xanthen-4-yl)pyridin-2(1H)-one]	100 to 500
Cc1cccc(C(CCN2CCCC2)Nc2ccc3c(c2)Sc2cccc(-c4cc(N5CCOCC5)cc(=O)[nH]4)c2S3)n1 (stereo not shown) [Example 1-34-6, 6-(7-((1-(6-Methylpyridin-2-yl)-3-(pyrrolidin-1-yl)propyl)amino)thianthren-1-yl)-4-morpholino pyridin-2(1H)-one]	100 to 500
O=c1cc(N2CCOCC2)cc(-c2cccc3c2Sc2ccc(NCc4cccnc4)cc2C3)[nH]1 [Example 3-8-1, 4-Morpholino-6-(7-((pyridin-3-ylmethyl)amino)-9H-thioxanthen-4-yl)pyridin-2(1H)-one]	100 to 500
COc1cncc(CN2CCC(Nc3ccc4c(c3)Cc3cccc(-c5cc(N6CCOCC6)cc(=O)[nH]5)c3O4)CC2)c1 [Example 2-28-2, 6-(7-((1-((5-Methoxypyridin-3-yl)methyl)piperidin-4-yl)amino)-9H-xanthen-4-yl)-4-morpholino pyridin-2(1H)-one]	500 to 2000
O=c1cc(N2CCOCC2)cc(-c2cccc3c2Oc2ccc(NC4CCN(Cc5ccsc5)CC4)cc2C3)[nH]1 [Example 2-28-26, 4-Morpholino-6-(7-((1-(thiophen-3-ylmethyl)piperidin-4-yl)amino)-9H-xanthen-4-yl)pyridin-2(1H)-one]	100 to 500
COc1ccncc1CN1CCC(Nc2ccc3c(c2)Sc2cccc(-c4cc(N5CCOCC5)cc(=O)[nH]4)c2S3)C1 (stereo not shown) [Example 1-24-10, 6-(7-((1-((4-Methoxypyridin-3-yl)methyl)pyrrolidin-3-yl)amino)thianthren-1-yl)-4-morpholino pyridin-2(1H)-one]	100 to 500
Nc1ccc(CCN2CCC(Nc3ccc4c(c3)Cc3cccc(-c5cc(N6CCOCC6)cc(=O)[nH]5)c3O4)CC2)cc1 [Example 2-31, hydrochloride of 6-(7-((1-(4-aminophenethyl)piperidin-4-yl)amino)-9H-xanthen-4-yl)-4-morpholinopyridin-2(1H)-one]	100 to 500
CC(CCNc1ccc2c(c1)Sc1cccc(-c3cc(N4CCOCC4)cc(=O)[nH]3)c1S2)N1CCOCC1 (stereo not shown) [Example 8-2, 4-Morpholino-6-(7-((3-morpholinobutyl)amino)thianthren-1-yl)pyridin-2(1H)-one]	100 to 500
Cc1ccnc(C(C)Nc2ccc3c(c2)Cc2cccc(-c4cc(N5CCOCC5)cc(=O)[nH]4)c2O3)c1 (single isomer, unassigned) [Example 2-14-93-1, 6-(7-((1-(4-methylpyridin-2-yl)ethyl)amino)-9H-xanthen-4-yl)-4-morpholinopyridin-2(1H)-one]	100 to 500
CC(CN1CCC(Nc2ccc3c(c2)Cc2cccc(-c4cc(N5CCOCC5)cc(=O)[nH]4)c2O3)CC1)c1ccccc1 (stereo not shown) [Example 2-28-37, 4-Morpholino-6-(7-((1-(2-phenylpropyl)piperidin-4-yl)amino)-9H-xanthen-4-yl) pyridin-2(1H)-one]	100 to 500
CC(Nc1ccc2c(c1)Cc1cccc(-c3cc(N4CCOCC4)cc(=O)[nH]3)c1O2)c1ccnc(F)c1 (stereo not shown) [Example 2-14-25]	100 to 500
CCCCN1CCCC(Nc2ccc3c(c2)Cc2cccc(-c4cc(N5CCOCC5)cc(=O)[nH]4)c2O3)C1 (stereo not shown) [Example 2-19-4, 6-(7-((1-Butylpiperidin-3-yl)amino)-9H-xanthen-4-yl)-4-morpholinopyridin-2(1H)-one]	100 to 500
CCOC(=O)c1ccc(CNc2ccc3c(c2)Sc2cccc(-c4cc(N5CCOCC5)cc(=O)[nH]4)c2S3)nc1 [Example 1-12-112, Ethyl 6-(((6-(4-morpholino-6-oxo-1,6-dihydropyridin-2-yl)thianthren-2-yl)amino)methyl)nicotinate]	100 to 500

Structure (SMILES)	IC50 [nM]
CC(C)N1CCC(Nc2ccc3c(c2)Sc2cccc(-c4cc(N5CCOCC5)cc(=O)[nH]4)c2S3)CC1 [Example 1-12-116, 6-(7-((1-Isopropylpiperidin-4-yl)amino)thianthren-1-yl)-4-morpholino pyridin-2(1H)-one]	100 to 500
Cc1ccc(C(CCCN(C)C)Nc2ccc3c(c2)Sc2cccc(-c4cc(N5CCOCC5)cc(=O)[nH]4)c2S3)nc1 (single isomer, unassigned) [Example 1-51-4, 6-(7-((4-(Dimethylamino)-1-(5-methylpyridin-2-yl)butyl)amino)thianthren-1-yl)-4-morpholino pyridin-2(1H)-one]	100 to 500
O=c1cc(N2CCOCC2)cc(-c2cccc3c2Sc2ccc(NCc4cccnc4)cc2S3)[nH]1 [Example 1-12-25, 4-Morpholino-6-(7-((pyridin-3-ylmethyl)amino)thianthren-1-yl)pyridin-2 (1H)-one]	100 to 500
Cc1cnc(C(CCN(C)C)Nc2ccc3c(c2)Sc2cccc(-c4cc(N5CCOCC5)cc(=O)[nH]4)c2O3)cn1 (single isomer, unassigned) [Example 10-7, 6-(8-((3-(Dimethylamino)-1-(5-methylpyrazin-2-yl)propyl)amino)phenoxathiin-4-yl)-4-morpholinopyridin-2(1H)-one]	< 100
Cc1ccsc1CNc1ccc2c(c1)Sc1cccc(-c3cc(N4CCOCC4)cc(=O)[nH]3)c1S2 [Example 1-12-59, 6-(7-(((3-Methylthiophen-2-yl)methyl)amino)thianthren-1-yl)-4-morpholino pyridin-2 (1H)-one]	500 to 2000
COCC(=O)N1CCC(Nc2ccc3c(c2)Sc2cccc(-c4cc(N5CCOCC5)cc(=O)[nH]4)c2S3)CC1 [Example 1-28, 6-(7-((1-(2-methoxyacetyl)piperidin-4-yl)amino)thianthren-1-yl)-4-morpholinopyridin-2(1H)-one]	500 to 2000
O=c1cc(N2CCOCC2)cc(-c2cccc3c2Sc2ccc(NCCN4CCC(F)(F)CC4)cc2S3)[nH]1 [Example 1-10-1, 6-(7-((2-(4,4-Difluoropiperidin-1-yl)ethyl)amino)thianthren-1-yl)-4-morpholinopyridin-2(1H)-one]	100 to 500
CC(Nc1ccc2c(c1)Cc1cccc(-c3cc(N4CCOCC4)cc(=O)[nH]3)c1O2)c1ncccn1 (stereo not shown) [Example 2-14-78, 4-Morpholino-6-(7-((1-(pyrimidin-2-yl)ethyl)amino)-9H-xanthen-4-yl) pyridin-2(1H)-one]	100 to 500
O=c1cc(N2CCOCC2)cc(-c2cccc3c2Oc2ccc(NCc4cncc(-c5cn[nH]c5)c4)cc2C3)[nH]1 [Example 2-8-2, 6-(7-(((5-(1H-pyrazol-4-yl)pyridin-3-yl)methyl)amino)-9H-xanthen-4-yl)-4-morpholinopyridin-2(1H)-one]	100 to 500
O=c1cc(N2CCOCC2)cc(-c2cccc3c2Sc2ccc(NCCN4CCOCC4)cc2C3)[nH]1 [Example 3-4-1, 4-Morpholino-6-(7-((2-morpholinoethyl)amino)-9H-thioxanthen-4-yl)pyridin-2(1H)-one]	500 to 2000
O=c1cc(N2CCOCC2)cc(-c2cccc3c2Sc2ccc(NCc4cnccn4)cc2C3)[nH]1 [Example 3-8-5, 4-Morpholino-6-(7-((pyrazin-2-ylmethyl)amino)-9H-thioxanthen-4-yl)pyridin-2 (1H)-one]	500 to 2000
O=c1cc(N2CCOCC2)cc(-c2cccc3c2Oc2ccc(NCCc4cccnc4)cc2C3)[nH]1 [Example 2-12, 4-morpholino-6-(7-((2-(pyridin-3-yl)ethyl)amino)-9H-xanthen-4-yl)pyridin-2(1H)-one]	100 to 500
CC(CN1CCOCC1C)Nc1ccc2c(c1)Sc1cccc(-c3cc(N4CCOCC4)cc(=O)[nH]3)c1S2 (stereo not shown) [Example 1-13-10, 6-(7-((1-(3-Methylmorpholino)propan-2-yl)amino)thianthren-1-yl)-4-morpholino pyridin-2(1H)-one]	100 to 500
O=c1cc(N2CCOCC2)cc(-c2cccc3c2Oc2ccc(NC4CCN(CCc5ccc(Cl)cc5)CC4)cc2C3)[nH]1 [Example 2-30-6, 6-(7-((1-(4-Chlorophenethyl)piperidin-4-yl)amino)-9H-xanthen-4-yl)-4-morpholino pyridin-2 (1H)-one]	500 to 2000
CC(Nc1ccc2c(c1)Cc1ccnc(-c3cc(N4CCOCC4)cc(=O)[nH]3)c1O2)c1cccc(F)n1 (stereo not shown) [Example 2-41-13, 6-(7-((1-(6-Fluoropyridin-2-yl)ethyl)amino)-5H-chromeno[2,3-c]pyridin-1-yl]-4-morpholino pyridin-2(1H)-one]	100 to 500
O=c1cc(N2CCOCC2)cc(-c2cccc3c2Oc2ccc(NC4CCCN(CCc5ccccc5)CC4)cc2S3)[nH]1 (stereo not shown) [Example 4-6-2, 4-Morpholino-6-(8-((1-phenethylazepan-4-yl)amino)phenoxathiin-4-yl)pyridin-2(1H)-one]	100 to 500
CCOC(=O)CNc1ccc2c(c1)Cc1cccc(-c3cc(N4CCOCC4)cc(=O)[nH]3)c1O2 [Example 2-14-71, Ethyl 2-((5-(4-morpholino-6-oxo-1,6-dihydropyridin-2-yl)-9H-xanthen-2-yl)amino) acetate]	100 to 500
